In ChEMBL document CHEMBL5725686, “G protein-coupled receptor kinase 2 inhibitors and methods for use of the same” (2018) one finds IC50 data, which are given here for 4 molecules.

For one test, the target named is T1, Rhodopsin kinase GRK1 (Homo sapiens, UniProt Q15835).
T1 sequence (Q15835 whole entry): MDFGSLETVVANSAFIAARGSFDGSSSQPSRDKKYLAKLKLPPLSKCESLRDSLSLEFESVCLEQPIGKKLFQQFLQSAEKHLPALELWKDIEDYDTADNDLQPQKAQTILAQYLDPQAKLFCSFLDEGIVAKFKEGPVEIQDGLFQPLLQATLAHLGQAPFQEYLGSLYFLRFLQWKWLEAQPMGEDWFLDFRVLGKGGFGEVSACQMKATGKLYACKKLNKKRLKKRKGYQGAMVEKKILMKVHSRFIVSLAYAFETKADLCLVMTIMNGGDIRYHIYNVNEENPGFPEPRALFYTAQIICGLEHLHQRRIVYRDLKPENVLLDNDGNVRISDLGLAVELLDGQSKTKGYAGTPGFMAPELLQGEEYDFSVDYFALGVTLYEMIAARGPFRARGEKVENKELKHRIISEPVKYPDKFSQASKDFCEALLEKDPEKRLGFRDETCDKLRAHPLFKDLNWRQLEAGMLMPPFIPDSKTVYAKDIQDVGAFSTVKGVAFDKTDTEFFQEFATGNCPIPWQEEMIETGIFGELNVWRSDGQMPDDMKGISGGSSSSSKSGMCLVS
Put plainly: The low salt concentration and DDM were used to maximize GRK activity and disrupt small molecule aggregates from forming, respectively. Reactions were quenched with SDS loading buffer, separated via SDS-PAGE, dried and exposed with a phosphorimaging screen prior to quantification via Typhoon imager, as previously reported (see Thal et al., ACS Chemical Biology 7(11):1830-1839 (2012)). Data was analyzed and inhibition curves were fit via GraphPad Prism.

The target in test [1] is G protein-coupled receptor kinase 5 (Homo sapiens, UniProt P34947). Put plainly: The low salt concentration and DDM were used to maximize GRK activity and disrupt small molecule aggregates from forming, respectively. […] Data was analyzed and inhibition curves were fit via GraphPad Prism.
G protein-coupled receptor kinase 5, sequence (P34947 whole entry): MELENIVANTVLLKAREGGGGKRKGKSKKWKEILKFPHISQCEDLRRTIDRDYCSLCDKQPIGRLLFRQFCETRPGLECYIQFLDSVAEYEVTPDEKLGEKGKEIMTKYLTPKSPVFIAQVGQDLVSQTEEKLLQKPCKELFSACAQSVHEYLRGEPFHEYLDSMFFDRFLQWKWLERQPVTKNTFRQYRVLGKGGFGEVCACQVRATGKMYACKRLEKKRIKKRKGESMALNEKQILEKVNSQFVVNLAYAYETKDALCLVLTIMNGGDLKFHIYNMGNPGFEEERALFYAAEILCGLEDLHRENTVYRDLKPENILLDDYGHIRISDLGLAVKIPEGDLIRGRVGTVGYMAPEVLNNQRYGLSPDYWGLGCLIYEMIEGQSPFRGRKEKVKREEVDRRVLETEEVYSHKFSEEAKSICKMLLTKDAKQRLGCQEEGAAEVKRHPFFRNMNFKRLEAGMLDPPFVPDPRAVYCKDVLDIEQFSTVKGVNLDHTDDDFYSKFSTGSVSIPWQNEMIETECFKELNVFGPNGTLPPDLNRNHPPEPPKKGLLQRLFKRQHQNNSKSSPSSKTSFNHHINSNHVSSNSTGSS

For orientation: IC50 means the concentration that inhibits the measured activity by half. As to `CC1=C(C(=O)Nc2ccc3[nH]ncc3c2)C(c2ccc(F)c(CC(=O)N(CCO)Cc3ccco3)c2)NC(=O)N1` (centres undefined), the IC50 on Rhodopsin kinase GRK1 came to 21 µM. Turning to `C#CCN(CC(C)C)C(=O)Cc1cc(C2NC(=O)NC(C)=C2C(=O)Nc2ccc3[nH]ncc3c2)ccc1F` (centres undefined), the IC50 in test [1] turned out to be 8.9 µM.

On to `C#CCN(Cc1ccco1)C(=O)Cc1cc(C2NC(=O)NC(C)=C2C(=O)Nc2ccc3[nH]ncc3c2)ccc1F` (centres undefined), for which, in test [1], the IC50 turned out to be 4.4 µM. The same measure, in the same setting: the figure for `CC1=C(C(=O)Nc2ccc3[nH]ncc3c2)C(c2ccc(F)c(C(=O)NCc3nccc4ccccc34)c2)NC(=O)N1` (centres undefined) is 5.4 µM.
